Source: the supplement of paper PMC10307832

Legend:
Experiment in all cases: relative viability (nuclei count vs DMSO), 5 days (fraction); higher = more cells survive
BX 795 + Luminespib = compound: O=C(NCCCNc1nc(Nc2cccc(NC(=O)N3CCCC3)c2)ncc1I)c1cccs1 [BX 795] + CCNC(=O)c1noc(-c2cc(C(C)C)c(O)cc2O)c1-c1ccc(CN2CCOCC2)cc1 [Luminespib] (partner 0.01 µM)
Outline: (§1)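 Relative viability is defined as nuclei in treated wells over nuclei in vehicle wells. Duplicate plates were run and medians reported. Lung cancer cell lines in 1536-well plates were dosed by pin tool one day after seeding, with one drug or with a fixed anchor-drug dose plus five library-drug doses (not always all listed) in √10 steps, and nuclei were counted after 5 days.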

BX 795 + OSI-027 = compound: O=C(NCCCNc1nc(Nc2cccc(NC(=O)N3CCCC3)c2)ncc1I)c1cccs1 [BX 795] + COc1cccc2cc(-c3nc([C@H]4CC[C@H](C(=O)O)CC4)n4ncnc(N)c34)[nH]c12 [OSI-027] (partner 0.5 µM)
Outline: as §1

BX 795 + Pictilisib = compound: O=C(NCCCNc1nc(Nc2cccc(NC(=O)N3CCCC3)c2)ncc1I)c1cccs1 [BX 795] + CS(=O)(=O)N1CCN(Cc2cc3nc(-c4cccc5[nH]ncc45)nc(N4CCOCC4)c3s2)CC1 [Pictilisib] (partner 1 µM)
Outline: as §1

BX 795 + Phenformin = compound: O=C(NCCCNc1nc(Nc2cccc(NC(=O)N3CCCC3)c2)ncc1I)c1cccs1 [BX 795] + N=C(N)NC(=N)NCCc1ccccc1 [Phenformin] (partner 250 µM)
Outline: as §1

BX 795 + Olaparib = compound: O=C(NCCCNc1nc(Nc2cccc(NC(=O)N3CCCC3)c2)ncc1I)c1cccs1 [BX 795] + O=C(c1cc(Cc2n[nH]c(=O)c3ccccc23)ccc1F)N1CCN(C(=O)C2CC2)CC1 [Olaparib] (partner 8 µM)
Outline: as §1

Cell Line | relative viability (BX 795 + Luminespib; first compound 0.04 µM) | relative viability (BX 795 + Luminespib; first compound 0.1265 µM) | relative viability (BX 795 + Luminespib; first compound 0.4 µM) | relative viability (BX 795 + Luminespib; first compound 1.265 µM) | relative viability (BX 795 + OSI-027; first compound 0.04 µM) | relative viability (BX 795 + OSI-027; first compound 0.1265 µM) | relative viability (BX 795 + OSI-027; first compound 0.4 µM) | relative viability (BX 795 + OSI-027; first compound 1.265 µM) | relative viability (BX 795 + Pictilisib; first compound 0.04 µM) | relative viability (BX 795 + Pictilisib; first compound 0.1265 µM) | relative viability (BX 795 + Pictilisib; first compound 0.4 µM) | relative viability (BX 795 + Pictilisib; first compound 1.265 µM) | relative viability (BX 795 + Phenformin; first compound 0.04 µM) | relative viability (BX 795 + Phenformin; first compound 0.1265 µM) | relative viability (BX 795 + Phenformin; first compound 0.4 µM) | relative viability (BX 795 + Phenformin; first compound 1.265 µM) | relative viability (BX 795 + Olaparib; first compound 0.04 µM) | relative viability (BX 795 + Olaparib; first compound 0.1265 µM) | relative viability (BX 795 + Olaparib; first compound 0.4 µM) | relative viability (BX 795 + Olaparib; first compound 1.265 µM)
201T | 1.03 | 1.07 | 1.19 | 1.04 | 0.946 | 0.675 | 0.775 | 0.824 | 0.689 | 0.679 | 0.721 | 0.68 | 0.47 | 0.421 | 0.464 | 0.421 | 0.657 | 0.851 | 0.899 | 0.856
A549 | – | – | – | – | – | – | – | – | 0.51 | 0.47 | 0.449 | 0.134 | 0.23 | 0.15 | 0.271 | 0.112 | 0.495 | 0.379 | 0.279 | 0.219
A-427 | 0.779 | 0.866 | 0.643 | 0.665 | 0.514 | 0.476 | 0.51 | 0.299 | 0.723 | 0.805 | 0.651 | 0.585 | 0.284 | 0.236 | 0.277 | 0.177 | 0.826 | 0.68 | 0.672 | 0.641
ABC-1 | 0.445 | 0.381 | 0.334 | 0.283 | 0.577 | 0.512 | 0.459 | 0.33 | 0.507 | 0.555 | 0.634 | 0.661 | 0.263 | 0.265 | 0.262 | 0.195 | 1.07 | – | 0.962 | 0.526
BEN | 0.458 | 0.432 | 0.351 | 0.312 | 0.264 | 0.297 | 0.257 | 0.26 | 0.542 | 0.587 | 0.533 | 0.715 | 0.235 | 0.278 | 0.245 | 0.21 | 1.19 | 1.34 | 0.797 | 1.04
CAL-12T | 0.534 | 0.488 | 0.194 | 0.181 | 0.726 | 0.834 | 0.669 | 0.186 | 0.543 | 0.452 | 0.368 | 0.32 | 0.599 | 0.591 | 0.447 | 0.212 | 0.877 | 0.769 | 0.725 | 0.41
COR-L23 | 0.576 | 0.573 | 0.71 | 0.197 | 0.843 | 0.769 | 0.82 | 0.501 | 0.909 | 0.899 | 0.75 | 0.538 | 0.391 | 0.411 | 0.431 | 0.234 | 0.328 | 0.311 | 0.247 | 0.166
COR-L 105 | 0.879 | 0.835 | 0.788 | 0.849 | 0.659 | 0.665 | 0.582 | 0.466 | 0.376 | 0.381 | 0.359 | 0.328 | 0.42 | 0.531 | 0.407 | 0.351 | 0.705 | 0.491 | 0.644 | 0.562
ChaGo-K-1 | 0.503 | 0.523 | 0.602 | 0.492 | 0.632 | 0.553 | 0.548 | 0.432 | 0.615 | 0.52 | 0.735 | 0.776 | 0.449 | 0.471 | 0.494 | 0.472 | 0.424 | 0.447 | 0.415 | 0.311
EKVX | 0.893 | 0.977 | 0.825 | 0.79 | 0.657 | 0.649 | 0.63 | 0.603 | 0.401 | 0.455 | 0.421 | 0.466 | 0.225 | 0.247 | 0.21 | 0.217 | 0.833 | 0.783 | 0.666 | 0.807
EMC-BAC-2 | 1.18 | 1.22 | 1.13 | 0.492 | 0.413 | 0.404 | 0.377 | 0.273 | 0.533 | 0.488 | 0.479 | 0.415 | 0.473 | 0.489 | 0.469 | 0.301 | 0.563 | 0.369 | 0.494 | 0.323
EPLC-272H | 0.342 | 0.187 | 0.158 | 0.292 | 0.297 | 0.291 | 0.304 | 0.336 | 0.364 | – | 0.308 | 0.304 | 0.364 | 0.216 | 0.284 | 0.272 | 0.932 | 0.681 | 0.352 | 0.325
H3255 | 0.891 | 0.852 | 0.979 | 0.891 | 0.581 | 0.605 | 0.629 | 0.51 | 0.533 | 0.475 | 0.498 | 0.428 | 0.371 | 0.354 | 0.406 | 0.363 | 0.624 | 0.608 | 0.501 | 0.492
HARA | 0.588 | 0.838 | 0.907 | 0.656 | 0.598 | 0.494 | 0.701 | 0.41 | 0.403 | 0.412 | 0.496 | 0.474 | 0.446 | 0.424 | 0.506 | 0.447 | 0.436 | 0.328 | 0.549 | 0.766
HCC-15 | 0.346 | 0.298 | 0.298 | 0.408 | 0.627 | 0.755 | 0.717 | 0.474 | 0.71 | 0.779 | 0.968 | 0.744 | 0.423 | 0.485 | 0.482 | 0.283 | 0.857 | 0.73 | 1.04 | 0.499
HCC-44 | 0.98 | 1.37 | 0.497 | 0.58 | 0.483 | 0.472 | 0.564 | 0.45 | 0.55 | 0.672 | 0.681 | 0.594 | 0.157 | 0.162 | 0.222 | 0.153 | 0.995 | 1.01 | 1.06 | 1
